Patent US9611277B2 (Janssen Pharmaceutica NV, priority 2013, dated 2017)

Assays:
rat orexin 1 receptor = rat orexin 1 receptor (Rattus norvegicus, UniProt P56718); experiment: Rat orexin 1 receptor radioligand binding; conditions: rat orexin 1 receptor; averages of 2-20 runs; read-out: rOX1 Ki
How it was run: (§1)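 Competition binding with the tritiated thiazolyl-pyrrolidinyl-methanone radioligand in PBS on homogenized rat or human OX1R-expressing cell suspensions, ≤0.1% DMSO; nonspecific binding defined with 10 μM almorexant. Bound radioactivity read by scintillation after filtration; IC50 from one-site competition fit, converted to Ki using pre-determined radioligand Kd.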

human orexin 2 receptor = human orexin 2 receptor (Homo sapiens (Human), UniProt O43614); experiment: Human orexin 2 receptor radioligand binding; conditions: human orexin 2 receptor; averages of 2-20 runs; read-out: hOX2 Ki
How it was run: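 HEK293 cells stably expressing human OX2 receptor, homogenized, incubated with [3H]-EMPA and compounds (DMSO ≤0.1%); nonspecific binding with 10 μM almorexant. Filter-bound radioactivity counted by scintillation; IC50 from one-site competition fit of triplicates, Ki from IC50 and predetermined radioligand Kd, averaged over 2-20 runs.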

human orexin 1 receptor = human orexin 1 receptor (Homo sapiens, UniProt O43613); experiment: Human orexin 1 receptor radioligand binding; conditions: human orexin 1 receptor; averages of 2-20 runs; read-out: hOX1 Ki
How it was run: as §1

Chain of human orexin 2 receptor (O43614 whole entry): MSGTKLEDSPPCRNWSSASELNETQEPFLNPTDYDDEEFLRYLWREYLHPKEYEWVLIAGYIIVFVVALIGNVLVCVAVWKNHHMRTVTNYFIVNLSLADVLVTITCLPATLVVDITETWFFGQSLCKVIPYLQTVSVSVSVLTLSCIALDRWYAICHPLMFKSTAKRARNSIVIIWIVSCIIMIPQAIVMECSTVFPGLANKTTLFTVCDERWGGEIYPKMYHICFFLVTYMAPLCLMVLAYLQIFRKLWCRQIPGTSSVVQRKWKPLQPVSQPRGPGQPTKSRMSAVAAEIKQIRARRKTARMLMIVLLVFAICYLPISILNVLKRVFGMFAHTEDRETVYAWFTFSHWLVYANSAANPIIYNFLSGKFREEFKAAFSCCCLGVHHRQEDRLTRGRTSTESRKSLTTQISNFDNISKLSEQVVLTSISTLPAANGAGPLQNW

| SMILES | Ki (rat orexin 1 receptor) [nM] | Ki (human orexin 2 receptor) [nM] | Ki (human orexin 1 receptor) [nM] |
| --- | --- | --- | --- |
| O=C(c1cccc(F)c1-n1nccn1)N1C[C@H]2C[C@@H](Nc3ncc(C(F)(F)F)cn3)[C@@H]1C2 [Example 223, (3-fluoro-2-(2H-1,2,3-triazol-2-yl)phenyl)((1S,4S,6R)-6-((5-(trifluoromethyl)pyrimidin-2-yl)amino)-2-azabicyclo[2.2.1]heptan-2-yl)methanone] | 11 | 619 | 6 |
| O=C(c1ccc(F)cc1-n1nccn1)N1C[C@H]2C[C@@H](Nc3ncc(C(F)(F)F)cn3)[C@@H]1C2 [Example 224, (4-fluoro-2-(2H-1,2,3-triazol-2-yl)phenyl)((1S,4S,6R)-6-((5-(trifluoromethyl)pyrimidin-2-yl)amino)-2-azabicyclo[2.2.1]heptan-2-yl)methanone] | 37 | 1900 | 33 |
| O=C(c1cc(F)ccc1-n1nccn1)N1C[C@H]2C[C@@H](Nc3ncc(C(F)(F)F)cn3)[C@@H]1C2 [Example 225, (5-fluoro-2-(2H-1,2,3-triazol-2-yl)phenyl)((1S,4S,6R)-6-((5-(trifluoromethyl)pyrimidin-2-yl)amino)-2-azabicyclo[2.2.1]heptan-2-yl)methanone] | 20 | 800 | 16 |
| O=C(c1c(F)cccc1-n1nccn1)N1C[C@H]2C[C@@H](Nc3ncc(C(F)(F)F)cn3)[C@@H]1C2 [Example 226, (2-fluoro-6-(2H-1,2,3-triazol-2-yl)phenyl)((1S,4S,6R)-6-((5-(trifluoromethyl)pyrimidin-2-yl)amino)-2-azabicyclo[2.2.1]heptan-2-yl)methanone] | 17 | 874 | 19 |
| O=C(c1ccc(F)cc1-c1ncccn1)N1C[C@H]2C[C@@H](Nc3ncc(C(F)(F)F)cn3)[C@@H]1C2 [Example 227, (4-fluoro-2-(pyrimidin-2-yl)phenyl)((1S,4S,6R)-6-((5-(trifluoromethyl)pyrimidin-2-yl)amino)-2-azabicyclo[2.2.1]heptan-2-yl)methanone] | 12 | 3100 | 13 |
| O=C(c1cc(F)ccc1-c1ncccn1)N1C[C@H]2C[C@@H](Nc3ncc(C(F)(F)F)cn3)[C@@H]1C2 [Example 228, (5-fluoro-2-(pyrimidin-2-yl)phenyl)((1S,4S,6R)-6-((5-(trifluoromethyl)pyrimidin-2-yl)amino)-2-azabicyclo[2.2.1]heptan-2-yl)methanone] | 11 | 544 | 9 |
| O=C(c1c(F)cccc1-c1ncccn1)N1C[C@H]2C[C@@H](Nc3ncc(C(F)(F)F)cn3)[C@@H]1C2 [Example 229, (2-fluoro-6-(pyrimidin-2-yl)phenyl)((1S,4S,6R)-6-((5-(trifluoromethyl)pyrimidin-2-yl)amino)-2-azabicyclo[2.2.1]heptan-2-yl)methanone] | 9 | 724 | 11 |
| O=C(c1ccccc1-c1ncccn1)N1C[C@H]2C[C@@H](Nc3ncc(C(F)(F)F)cn3)[C@@H]1C2 [Example 230, (2-(pyrimidin-2-yl)phenyl)((1S,4S,6R)-6-((5-(trifluoromethyl)pyrimidin-2-yl)amino)-2-azabicyclo[2.2.1]heptan-2-yl)methanone] | 4 | 470 | 4 |
| O=C(c1ccccc1-c1ncc(F)cn1)N1C[C@H]2C[C@@H](Nc3ncc(C(F)(F)F)cn3)[C@@H]1C2 [Example 231, (2-(5-fluoropyrimidin-2-yl)phenyl)((1S,4S,6R)-6-((5-(trifluoromethyl)pyrimidin-2-yl)amino)-2-azabicyclo[2.2.1]heptan-2-yl)methanone] | 9 | 1300 | 12 |
| O=C(c1c(F)cccc1-c1ncco1)N1C[C@H]2C[C@@H](Nc3ncc(C(F)(F)F)cn3)[C@@H]1C2 [Example 232, (2-fluoro-6-(oxazol-2-yl)phenyl)((1S,4S,6R)-6-((5-(trifluoromethyl)pyrimidin-2-yl)amino)-2-azabicyclo[2.2.1]heptan-2-yl)methanone] | 24 | 1350 | 25 |
| O=C(c1cccc(F)c1-n1nccn1)N1C[C@H]2C[C@@H](Nc3ncc(Cl)cn3)[C@@H]1C2 [Example 234, ((1S,4S,6R)-6-((5-chloropyrimidin-2-yl)amino)-2-azabicyclo[2.2.1]heptan-2-yl)(3-fluoro-2-(2H-1,2,3-triazol-2-yl)phenyl)methanone] | 17 | 827 | 12 |
| O=C(c1cc(F)ccc1-n1nccn1)N1C[C@H]2C[C@@H](Nc3ncc(Cl)cn3)[C@@H]1C2 [Example 235, ((1S,4S,6R)-6-((5-chloropyrimidin-2-yl)amino)-2-azabicyclo[2.2.1]heptan-2-yl)(5-fluoro-2-(2H-1,2,3-triazol-2-yl)phenyl)methanone] | 36 | 1300 | 41 |
| O=C(c1cccc(F)c1-c1ncccn1)N1C[C@H]2C[C@@H](Nc3ncc(Cl)cn3)[C@@H]1C2 [Example 236, ((1S,4S,6R)-6-((5-chloropyrimidin-2-yl)amino)-2-azabicyclo[2.2.1]heptan-2-yl)(3-fluoro-2-(pyrimidin-2-yl)phenyl)methanone] | 10 | 1020 | 9 |
| O=C(c1ccc(F)cc1-c1ncccn1)N1C[C@H]2C[C@@H](Nc3ncc(Cl)cn3)[C@@H]1C2 [Example 237, ((1S,4S,6R)-6-((5-chloropyrimidin-2-yl)amino)-2-azabicyclo[2.2.1]heptan-2-yl)(4-fluoro-2-(pyrimidin-2-yl)phenyl)methanone] | 32 | 1900 | 13 |
| O=C(c1c(F)cccc1-c1ncccn1)N1C[C@H]2C[C@@H](Nc3ncc(Cl)cn3)[C@@H]1C2 [Example 239, ((1S,4S,6R)-6-((5-chloropyrimidin-2-yl)amino)-2-azabicyclo[2.2.1]heptan-2-yl)(2-fluoro-6-(pyrimidin-2-yl)phenyl)methanone] | 23 | 726 | 41 |
| O=C(c1ccccc1-c1ncccn1)N1C[C@H]2C[C@@H](Nc3ncc(Cl)cn3)[C@@H]1C2 [Example 240, ((1S,4S,6R)-6-((5-chloropyrimidin-2-yl)amino)-2-azabicyclo[2.2.1]heptan-2-yl)(2-(pyrimidin-2-yl)phenyl)methanone] | 17 | 831 | 12 |
| O=C(c1ccccc1-n1nccn1)N1C[C@H]2C[C@@H](Nc3ccc(C(F)(F)F)nn3)[C@@H]1C2 [Example 242, (2-(2H-1,2,3-triazol-2-yl)phenyl)((1S,4S,6R)-6-((6-(trifluoromethyl)pyridazin-3-yl)amino)-2-azabicyclo[2.2.1]heptan-2-yl)methanone] | 89 | 2100 | 113 |
| Cc1ccc(-n2nccn2)c(C(=O)N2C[C@H]3C[C@@H](Nc4ccc(C(F)(F)F)nn4)[C@@H]2C3)n1 [Example 243, (6-methyl-3-(2H-1,2,3-triazol-2-yl)pyridin-2-yl)((1S,4S,6R)-6-((6-(trifluoromethyl)pyridazin-3-yl)amino)-2-azabicyclo[2.2.1]heptan-2-yl)methanone] | 112 | 1800 | 131 |
| Cc1ccc(-c2ncccn2)c(C(=O)N2C[C@H]3C[C@@H](Nc4ccc(C(F)(F)F)nn4)[C@@H]2C3)n1 [Example 244, (6-methyl-3-(pyrimidin-2-yl)pyridin-2-yl)((1S,4S,6R)-6-((6-(trifluoromethyl)pyridazin-3-yl)amino)-2-azabicyclo[2.2.1]heptan-2-yl)methanone] | 114 | 1700 | 143 |
| O=C(c1cccc(F)c1-c1ncccn1)N1C[C@H]2C[C@@H](Nc3ccc(C(F)(F)F)nn3)[C@@H]1C2 [Example 245, (3-fluoro-2-(pyrimidin-2-yl)phenyl)((1S,4S,6R)-6-((6-(trifluoromethyl)pyridazin-3-yl)amino)-2-azabicyclo[2.2.1]heptan-2-yl)methanone] | 65 | 4300 | 53 |
| O=C(c1ccccc1-n1nccn1)N1C[C@H]2C[C@@H](Nc3ccc(C(F)(F)F)nc3)[C@@H]1C2 [Example 246, (2-(2H-1,2,3-triazol-2-yl)phenyl)((1S,4S,6R)-6-((6-(trifluoromethyl)pyridin-3-yl)amino)-2-azabicyclo[2.2.1]heptan-2-yl)methanone] | 194 | 843 | 155 |
| O=C(c1cccc(F)c1-c1ncccn1)N1C[C@H]2C[C@@H](Nc3ccc(C(F)(F)F)nc3)[C@@H]1C2 [Example 247, (3-fluoro-2-(pyrimidin-2-yl)phenyl)((1S,4S,6R)-6-((6-(trifluoromethyl)pyridin-3-yl)amino)-2-azabicyclo[2.2.1]heptan-2-yl)methanone] | 26 | 939 | 31 |
| O=C(c1cc(F)ccc1-c1ncccn1)N1C[C@@H]2CC[C@H]1[C@H](Oc1ccc(C(F)(F)F)cn1)C2 [Example 260, (5-fluoro-2-(pyrimidin-2-yl)phenyl)((1S,4R,6R)-6-((5-(trifluoromethyl)pyridin-2-yl)oxy)-2-azabicyclo[2.2.2]octan-2-yl)methanone] | 11 | 294 | 10 |
| O=C(c1c(F)cccc1-c1ncccn1)N1C[C@@H]2CC[C@H]1[C@H](Oc1ccc(C(F)(F)F)cn1)C2 [Example 261, (2-fluoro-6-(pyrimidin-2-yl)phenyl)((1S,4R,6R)-6-((5-(trifluoromethyl)pyridin-2-yl)oxy)-2-azabicyclo[2.2.2]octan-2-yl)methanone] | 21 | 400 | 9 |
